Data published in US11015061B2, “Phthalocyanine-based compound and uses of same” (YAMAMOTO CHEMICALS, INC., priority 2017, dated 2021).

Columns and labels:
Assay type in all cases: physicochemical
[1] = Visible light transmittance of chloroform solution; settings: spectrum converted to transmittance 10% at near-infrared maximum absorption wavelength
Method: The visible light transmittance of the phthalocyanine-based compound of the present invention and the comparative example compounds was measured by the following measurement method.
Each of the phthalocyanine compounds ([…]) and approximately 90 mL of chloroform were put into a 100 mL volumetric flask, and the solution in the flask was irradiated with ultrasonic waves for 30 minutes and left to stand for 2 hours at room temperature. Then, chloroform was added thereto such that the meniscus of the solution matched up with the calibration mark on the volumetric flask, thereby preparing a 10 mg/L phthalocyanine solution. The prepared solution was put into a 1 cm×1 cm cell made of PYREX (registered trademark), and the absorption spectrum thereof was measured using a spectrophotometer (produced by Hitachi, Ltd.: Spectrophotometer U-3500).
The absorption spectrum measured as above was converted such that the absorbance became 1.0, that is, the transmittance became 10% at the maximum absorption wavelength in a near-infrared range, thereby obtaining a transmission spectrum. […] At 460 nm, the transmittance of the compound of the present invention was approximately the same as the transmittance of Comparative Examples 1 and 2.

[2] = Absorption spectrum of toluene solution (maximum absorption, gram absorption coefficient)
Method: A toluene solution of the compound obtained in this way had maximum absorption at 734.0 nm, and the gram absorption coefficient thereof was 1.21×10^5 mL/g·cm. The absorption spectrum chart thereof is illustrated in FIG. 1.

[3] = Solubility in organic solvent (cyclopentanone); settings: about 10 wt % dispersion, room temperature, 0.2 μm filter; no residue = 10 wt % or more
Method: The solubility of the phthalocyanine compound with respect to cyclopentanone was measured by the following method.
Cyclopentanone was added to about 1 g of the phthalocyanine compound such that the total weight thereof became about 10 g, and the obtained solution was irradiated with ultrasonic waves for about 30 minutes and then stirred for 2 hours at room temperature, thereby preparing a dispersion liquid of about 10 wt %.
The dispersion liquid was filtered through a membrane filter (0.2 μm), the substance obtained by filtration was dried for 1 hour in a drier at 60° C., and then the weight of the substance obtained by filtration was measured.
The solubility of the phthalocyanine compound in a solvent is expressed by the following equation. Solubility (wt %)=(W0−W1)/W0
W0 represents the correct weight of the phthalocyanine not yet being treated, and W1 represents the weight of the substance obtained by filtration (dissolved phthalocyanine compound residue) having been dried.

COCCCCCCCCc1ccc(CCCCCCCCOC)c2c1-c1nc-2nc2[n-]c(nc3nc(nc4[n-]c(n1)c1c(CCCCCCCCOC)ccc(CCCCCCCCOC)c41)-c1c(CCCCCCCCOC)ccc(CCCCCCCCOC)c1-3)c1c(CCCCCCCCOC)ccc(CCCCCCCCOC)c21.[O]=[V+2] [Comparative Example Compound (b), reference compound]
Transmittance (%) 460 nm [1]: 97.8%
Transmittance (%) 610 nm [1]: 87.9%
maximum absorption [2]: 737.5 nm
gram absorption coefficient ([2]; at maximum absorption): 105000 mL/g/cm
Solubility to cyclopentanone (wt %) [3]: ≤1% wt %
